From patent US20230073755A1, “USE OF IGF1 IN COMBINATION WITH IGFEC24 IN PREPARATION OF MEDICINE FOR PROMOTING TISSUE REPAIR AND REGENERATION” (Chongqing University, priority 2020, published 2023)

Columns and labels:
neuronal cells = experiment: Neuroproliferation and neural differentiation (Edu / DCX, hippocampal dentate gyrus), 13-month-old C57 mice; format: in vivo
Experimental: Female 13-month-old mice were divided into 2 groups, PBS group and IGF1-24 group, with 6 mice in each group, and the mice in each group were distinguished by ear tags for subsequent protein injection according to the different body weights of the mice. The mice in each group were injected with PBS and IGF1-24 for 7 consecutive days, and the recombinant protein IGF1-24 was injected at 100 μg/kg. After seven days of protein injection, Edu solution at a concentration of […] was injected intraperitoneally for seven consecutive days, so that the final total dose of each mouse reached 50 mg/kg. […]
Remove frozen sections from −20° C. and restore to room temperature; wash 3 times 10 min/time with PBS; permeabilize sections in 0.5% Triton for 30 min; wash 3 times 10 min/time with PBS; draw circles around the tissue with an immunohistochemistry pen and add 5% BSA dropwise for 1 h; aspirate 5% BSA and incubate at 4° C. with double cortin DCX primary antibody (1:500) dropwise overnight; PBS wash 3 times for 10 min/time; incubate FITC secondary antibody for 1 h; PBS wash 3 times for 10 min/time; incubate Edu dye for 1 h; PBS wash 3 times for 10 min/time; incubate DAPI for 10 min; PBS wash 3 times for 10 min/time; observe fluorescence under fluorescence microscope. […]

sciatic nerve = experiment: Sciatic nerve injury repair in rat sciatic nerve injury (clamp) model; format: in vivo, SD rats
Excerpt: The 8-week-old female SD rats were randomly divided into sham-operated and operated groups, with 3 rats in each group. SD rats were anesthetized by intraperitoneal injection of 10% chloral hydrate, and after successful anesthesia, the rats were fixed, and their right hind limbs were exposed by shaving with a shaver, and disinfected twice with 75% alcohol. A 3-4 cm incision was made with a scalpel at the posterior lateral femur of the right hind limb to expose the biceps femoris muscle, and the muscle was bluntly separated with surgical scissors to expose the thick sciatic nerve. The sciatic nerve was clamped vertically with a microhemostatic forceps, buckled to the third buckle, maintained for 10 s, repeated 3 times at 5 s/interval, resulting in an injury area approximately 2 mm wide, and the sciatic nerve was put back in place and sutured layer by layer. Penicillin (40,000 units/100g) was injected intraperitoneally for three consecutive days to prevent wound infection. […]
A dark box runway of 70 cm in length, 10 cm in width and 10 cm in height was made. […] The footprint length (PL), toe width (TS) and middle toe width (IT) were then measured and brought into the Bain formula for calculation.Bain formula: SFI=109.5 (ETS−NTS)/NTS−38.3 (EPL−NPL)/NPL+13.3(EIT−NIT)/NIT−8.8. […]

Substance: IGF1-24: 97 amino acids: amino-terminal 70 identical to IGF1, carboxyl-terminal 24 identical to IGFEc24 peptide, joined by three Gly linkers (SEQ ID NO: 4)
- immature neuronal cells (neural differentiation assay) (neuronal cells; PBS group 0.68%, FIG. 7): 1.01%
- proliferation of neuronal cells (neuronal cells; hippocampal dentate gyrus, PBS group 0.24%, FIG. 5-6): 0.47%
- expression of GAP-43 in the sciatic nerve (immunofluorescence) (sciatic nerve; after 14 days of IGF1-24 100 μg/kg intraperitoneally, significantly different from control and Injury groups, FIG. 15): remained at a high level
- sciatic nerve index (SFI) (sciatic nerve; treated group after IGF1-24 treatment, footprint analysis, Bain formula, FIG. 17): close to that of the uninjured group
